Where two headings read alike, the source gives them in different places.
Target: VHL (Homo sapiens, UniProt P40337)
Experiment: Fluorescence polarization competition assay (HIF-1α peptide FP displacement)

Row | SMILES | IC50 (IC50 (μM) 10% DMSO, 10% DMSO) [µM] | further results
1 | Cc1cc(CC(=O)N2C[C@H](O)C[C@H]2C(=O)NCc2ccc(-c3ccccc3)cc2)on1 [VL014] | 4.7 | –
2 | Cc1cc(CC(=O)N2C[C@H](O)C[C@H]2C(=O)NCc2c[nH]c3ccccc23)on1 [VL109] | 349 | –
3 | Cc1c(C(=O)N2C[C@H](O)C[C@H]2C(=O)NCc2ccc(Cl)cc2)cccc1[N+](=O)[O-] [VL066] | 72.4 | –
4 | Cc1cc(CC(=O)N2C[C@H](O)C[C@H]2C(=O)NCc2cccc(Cl)c2)on1 [VL004, (2S,4R)—N-(3-chlorobenzyl)-4-hydroxy-1-(2-(3-methylisoxazol-5-yl)acetyl)pyrrolidine-2-carboxamide] | 123 | IC50 (read-out: IC50 (μM) 1% DMSO, 1% DMSO): 117 µM
5 | CS(=O)(=O)N1C[C@H](O)C[C@H]1C(=O)Nc1ccc(Br)cc1F [VL010] | – | IC50 (μM) 10% DMSO (10% DMSO): Inactive
6 | Cc1n[nH]cc1C(=O)N1C[C@H](O)C[C@H]1C(=O)NCc1ccc(Cl)cc1 [VL102] | 64.5 | –
7 | Cc1cc(CC(=O)N2C[C@H](O)C[C@H]2C(=O)NCc2ccc(S(N)(=O)=O)cc2)on1 [VL087] | 103 | –
8 | COc1ccccc1N1CCN(C(=O)[C@@H]2C[C@@H](O)CN2C(=O)Cc2cc(C)no2)CC1 [VL043] | > 1000 | –
9 | O=C(NCc1ccc(Cl)cc1)[C@@H]1C[C@@H](O)CN1C(=O)c1ccccn1 [VL098] | 244 | –
10 | O=C(Nc1ccc(Br)cc1F)[C@@H]1C[C@@H](O)CN1S(=O)(=O)c1ccc2ccccc2c1 [VL001] | > 1000 | –
11 | Cc1cc(CC(=O)N2C[C@H](O)C[C@H]2C(=O)NCCc2ccc(O)cc2)on1 [Compound 2] | – | IC50 (Table 1A, binding of initial ligands to VHL, average of three independent trials, each in triplicate): 120 µM; displacement of the fluorescent HIF-1α peptide (fluorescence polarization, result in words): able to displace the fluorescent peptide albeit at high concentrations
12 | O=C(NCc1ccc(Cl)cc1)[C@@H]1C[C@@H](O)CN1C(=O)c1cc(C2CC2)on1 [VL061] | 419 | –
13 | O=C(NCc1ccc(Cl)cc1)[C@@H]1C[C@@H](O)CN1C(=O)CN1C(=O)CSC1=S [VL108] | 347 | –
14 | O=C(NCc1cccc(Cl)c1)[C@@H]1C[C@@H](O)CN1C(=O)Cc1nnn[nH]1 [VL012] | > 1000 | –
15 | O=C(NCc1ccc(Cl)cc1)[C@@H]1C[C@@H](O)CN1C(=O)Cc1cccs1 [VL053] | > 1000 | –
16 | Cc1cc(CC(=O)N2C[C@H](O)C[C@H]2C(=O)N[C@H](C)c2ccccc2)on1 [VL033] | > 1000 | –
17 | Cc1cc(CC(=O)N2C[C@H](O)C[C@H]2C(=O)NCc2ccc(Cl)cc2)on1 [VL021] | 36 | –
18 | N#Cc1ccc(CC(=O)N2C[C@H](O)C[C@H]2C(=O)NCc2ccc(Cl)cc2)s1 [VL068] | > 1000 | –
19 | COc1cccc(C(=O)N2C[C@H](O)C[C@H]2C(=O)NCc2ccc(Cl)cc2)c1 [VL079] | 26.3 | –
20 | O=C(NCc1ccc(Cl)cc1)[C@@H]1C[C@@H](O)CN1C(=O)Cc1cccc(Br)c1 [VL055] | 910 | –
21 | O=C(NCc1ccc(Cl)cc1)[C@@H]1C[C@@H](O)CN1C(=O)c1cccnc1 [VL097] | 49.4 | –
22 | Cc1cc(CC(=O)N2C[C@H](O)C[C@H]2C(=O)NCc2ccc(Cl)c(Cl)c2)on1 [VL030] | 215 | –
23 | Cc1cc(CC(=O)N2C[C@H](O)C[C@H]2C(=O)NCc2ccc(OC(F)(F)F)cc2)on1 [VL045] | 146 | –
24 | COc1ccc(C(=O)N2C[C@H](O)C[C@H]2C(=O)NCc2ccc(Cl)cc2)cc1OC [VL069] | 23.8 | –

Row | SMILES | IC50 (IC50 (μM) 10% DMSO, 10% DMSO) [µM] | further results
25 | O=C(NCc1ccc(Cl)cc1)[C@@H]1C[C@@H](O)CN1C(=O)c1cc(-c2ccccc2)on1 [VL060] | > 1000 | –
26 | CON(C)C(=O)c1ccc(CNC(=O)[C@@H]2C[C@@H](O)CN2C(=O)Cc2cc(C)no2)cc1 [VL093] | 510 | –
27 | O=C(NCc1ccc(Cl)cc1)[C@@H]1C[C@@H](O)CN1C(=O)c1cccc(Br)c1 [VL076] | 19.6 | –
28 | Cc1cc(CC(=O)N2C[C@H](F)C[C@H]2C(=O)NCc2ccc(-c3cnco3)cc2)on1 [VL113] | – | IC50 (μM) 1% DMSO (1% DMSO): Inactive; IC50 (μM) 10% DMSO (10% DMSO): Inactive
29 | CS(=O)(=O)N1C[C@H](O)C[C@H]1C(=O)NCc1cccc(Cl)c1 [VL007] | – | IC50 (μM) 10% DMSO (10% DMSO): Inactive
30 | Cc1cc(CC(=O)N2C[C@H](O)C[C@H]2C(=O)NCc2ccc([N+](=O)[O-])cc2)on1 [VL048] | 24.8 | –
31 | Cc1cc(CC(=O)N2C[C@H](O)C[C@H]2C(=O)NCc2ccc(Br)cc2)on1 [VL029] | 24.9 | –
32 | Cc1cc(CC(=O)N2C[C@H](O)C[C@H]2C(=O)NCc2ccc(C(=O)CC(C)C)cc2)on1 [VL090] | 45.2 | –
33 | COc1cccc(CNC(=O)[C@@H]2C[C@@H](O)CN2C(=O)Cc2cc(C)no2)c1 [VL024] | 511 | –
34 | O=C(NCc1ccc(Cl)cc1)[C@@H]1C[C@@H](O)CN1C(=O)c1ccnc(Cl)c1 [VL099] | 39.6 | –
35 | N#CCC(=O)N1C[C@H](O)C[C@H]1C(=O)NCc1ccc(Cl)cc1 [VL051] | > 1000 | –
36 | O=C(NCc1ccc(Cl)cc1)[C@@H]1C[C@@H](O)CN1C(=O)c1ccc(Cl)cc1Br [VL081] | 15.5 | –
37 | O=C(NCc1ccc(Cl)cc1)[C@@H]1C[C@@H](O)CN1C(=O)Cc1ccco1 [VL052] | > 1000 | –
38 | N#Cc1cc(S(=O)(=O)N2C[C@H](O)C[C@H]2C(=O)NCc2ccc(Cl)cc2)ccc1F [VL063] | > 1000 | –
39 | O=C(NCc1ccc(Cl)cc1)[C@@H]1C[C@@H](O)CN1C(=O)c1cccc(F)c1 [VL075] | 35.5 | –
40 | COc1cc(/C=C/C(=O)N2C[C@H](O)C[C@H]2C(=O)NCc2ccc(Cl)cc2)cc(OC)c1O [VL057] | > 1000 | –
41 | Cc1cc(CC(=O)N2C[C@H](O)C[C@H]2C(=O)NCc2ccncc2)on1 [VL037] | 88.8 | –
42 | Cc1nc(C(=O)N2C[C@H](O)C[C@H]2C(=O)NCc2ccc(Cl)cc2)co1 [VL101] | 940 | –
43 | Cc1cc(CC(=O)N2C[C@H](O)C[C@H]2C(=O)NCc2ccccc2Cl)on1 [VL028] | 210 | –
44 | CC(=O)Nc1ccc(Br)cc1C(=O)N1C[C@H](O)C[C@H]1C(=O)NCc1ccc(Cl)cc1 [VL083] | > 1000 | –
45 | Cc1cc(CC(=O)N2C[C@H](O)C[C@H]2C(=O)NCc2ccc(C#N)cc2)on1 [VL088] | 18.2 | –
46 | O=C(NCc1ccc(Cl)cc1)[C@@H]1C[C@@H](O)CN1C(=O)CCN1CCCCC1 [VL104] | > 1000 | –
47 | Cc1cc(CC(=O)N2C[C@H](O)C[C@H]2C(=O)NCc2ccc(C(C)(C)C)cc2)on1 [VL031] | 68.5 | –
48 | Cc1cc(CC(=O)N2C[C@H](O)C[C@H]2C(=O)NCc2cccs2)on1 [VL016] | ~730 | –

Now from value to compound, other results behind:

Row | IC50 (IC50 (μM) 10% DMSO, 10% DMSO) [µM] | SMILES | further results
49 | 24.7 | Cc1cc(CC(=O)N2C[C@H](O)C[C@H]2C(=O)NCc2ccc(-c3cn[nH]c3)cc2)on1 [VL139] | IC50 (IC50 (μM) 1% DMSO, 1% DMSO): 44 µM
50 | 22.8 | Cc1cc(CC(=O)N2C[C@H](O)C[C@H]2C(=O)NCc2ccc(-c3c(C)n[nH]c3C)cc2)on1 [VL152] | IC50 (IC50 (μM) 1% DMSO, 1% DMSO): 32 µM
51 | 560 | O=C(NCc1ccc(Cl)cc1)[C@@H]1C[C@@H](O)CN1C(=O)c1cccc(-c2ncc[nH]2)c1 [VL123] | IC50 (IC50 (μM) 1% DMSO, 1% DMSO): 404 µM
52 | 192 | COCc1cn(CC(=O)N2C[C@H](O)C[C@H]2C(=O)NCc2ccc(Cl)cc2)nn1 [VL141] | IC50 (IC50 (μM) 1% DMSO, 1% DMSO): 220 µM
53 | 35.6 | COCc1cn(CC(=O)N2C[C@H](O)C[C@H]2C(=O)NCc2ccc(-c3ccccc3)cc2)nn1 [VL137] | IC50 (IC50 (μM) 1% DMSO, 1% DMSO): 128 µM
54 | 129 | Cc1cc(CC(=O)N2C[C@H](O)C[C@H]2C(=O)NCc2ccc(C(=O)O)cc2)on1 [VL146] | IC50 (IC50 (μM) 1% DMSO, 1% DMSO): 196 µM
55 | 118 | Cc1cc(CC(=O)N2C[C@H](O)C[C@H]2C(=O)NCc2ccc(-c3cscn3)cc2)on1 [VL154] | IC50 (IC50 (μM) 1% DMSO, 1% DMSO): 77 µM
56 | 52.2 | Cc1cc(CC(=O)N2C[C@H](O)C[C@H]2C(=O)NCc2ccc(-c3c(C)noc3C)cc2)on1 [VL138] | IC50 (IC50 (μM) 1% DMSO, 1% DMSO): 70 µM
57 | 28.2 | COC(=O)Cc1cn(CC(=O)N2C[C@H](O)C[C@H]2C(=O)NCc2ccc(-c3ccccc3)cc2)nn1 [VL136] | IC50 (IC50 (μM) 1% DMSO, 1% DMSO): 540 µM
58 | 57.9 | O=C(NCc1ccc(Cl)cc1)[C@@H]1C[C@@H](O)CN1C(=O)c1cccc2cnccc12 [VL128] | IC50 (IC50 (μM) 1% DMSO, 1% DMSO): 224 µM
59 | 16.4 | Cc1cc(CC(=O)N2C[C@H](O)C[C@H]2C(=O)NCc2cccc(-c3cccn3C)c2)on1 [VL118] | IC50 (IC50 (μM) 1% DMSO, 1% DMSO): 31 µM
60 | > 1000 | Cc1cc(CC(=O)N2C[C@H](O)C[C@H]2C(=O)OCc2ccc(Cl)cc2)on1 [VL144] | IC50 (IC50 (μM) 1% DMSO, 1% DMSO): > 1000 µM
61 | 10.3 | Cc1cc(CC(=O)N2C[C@H](O)C[C@H]2C(=O)NCc2ccc(-c3c[nH]nn3)cc2)on1 [VL140] | IC50 (IC50 (μM) 1% DMSO, 1% DMSO): 17 µM
62 | 88.1 | O=C(NCc1ccc(Cl)cc1)[C@@H]1C[C@@H](O)CN1C(=O)c1ccc2[nH]ncc2c1 [VL126] | IC50 (IC50 (μM) 1% DMSO, 1% DMSO): 82 µM
63 | 780 | Cc1cc(CC(=O)N2C[C@H](O)C[C@H]2C(=O)OCc2ccc(-c3ccccc3)cc2)on1 [VL142] | IC50 (IC50 (μM) 1% DMSO, 1% DMSO): > 1000 µM
64 | 978 | COC(=O)Cc1cn(-c2ccccc2C(=O)N2C[C@H](O)C[C@H]2C(=O)NCc2ccc(Cl)cc2)nn1 [VL153] | –
65 | 11.3 | Cc1cc(CC(=O)N2C[C@H](O)C[C@H]2C(=O)NCc2ccc(-c3ncco3)cc2)on1 [VL112] | –
66 | 266 | Cc1cc(CC(=O)N2C[C@H](O)C[C@H]2C(=O)NCc2ccc(-c3cnc[nH]3)cc2)on1 [VL158] | IC50 (IC50 (μM) 1% DMSO, 1% DMSO): 180 µM
67 | 77.7 | COc1ccc(Cn2cncc2-c2ccc(CNC(=O)[C@@H]3C[C@@H](O)CN3C(=O)Cc3cc(C)no3)cc2)cc1 [VL132] | IC50 (IC50 (μM) 1% DMSO, 1% DMSO): 85 µM
68 | 2.2 | Cc1cc(CC(=O)N2C[C@H](O)C[C@H]2C(=O)NCc2ccc(-c3cc[nH]c3)cc2)on1 [VL133, (2S,4R)—N-(4-(1H-pyrrol-3-yl)benzyl)-4-hydroxy-1-(2-(3-methylisoxazol-5-yl)acetyl)pyrrolidine-2-carboxamide] | IC50 (IC50 (μM) 1% DMSO, 1% DMSO): 7.5 µM
69 | 138 | Cc1cc(CC(=O)N2C[C@H](O)C[C@H]2C(=O)NCc2ccc(N3CCCCC3)cc2)on1 [VL110] | –
70 | 17.4 | Cc1cc(CC(=O)N2C[C@H](O)C[C@H]2C(=O)NCc2ccc(-c3cncs3)cc2)on1 [VL155] | IC50 (IC50 (μM) 1% DMSO, 1% DMSO): 14 µM
71 | 760 | O=C(NCc1ccc(Cl)cc1)[C@@H]1C[C@@H](O)CN1C(=O)c1cccc2cccnc12 [VL129] | IC50 (IC50 (μM) 1% DMSO, 1% DMSO): 493 µM
72 | > 1000 | O=C(NCc1ccc(Cl)cc1)[C@@H]1C[C@@H](O)CN1C(=O)Cn1ccnc1 [VL156] | IC50 (IC50 (μM) 1% DMSO, 1% DMSO): > 1000 µM

Reference: US20190127359A1, “Compounds & Methods for the Enhanced Degradation of Targeted Proteins & Other Polypeptides by an E3 Ubiquitin Ligase” (YALE UNIVERSITY, priority 2012, published 2019)
